# Experimental data taken from patent US10168323B2, “Compositions and methods for capture of cellular targets of bioactive agents” (Promega Corporation, priority 2013, dated 2019).
# Values joined by “and” are separate entries in the source; they are usually repeats but may differ in a detail not shown here. Identical values can stand only once.
# Assays:
# [1] = molecular target: T1, NANOLUC:DHFR (Nluc:DHFR) fusion (Homo sapiens, UniProt P00374); experiment: Pull-down of NANOLUC:DHFR from live HEK293 cells onto HALOTAG protein beads; assay type: cell-based; details: 10 μM conjugate, release with 150 μM methotrexate
# T1 construct: NANOLUC luciferase (reporter fusion partner); expressed in transfected cells; host or cells: HEK293
# T1 sequence (P00374 1-187): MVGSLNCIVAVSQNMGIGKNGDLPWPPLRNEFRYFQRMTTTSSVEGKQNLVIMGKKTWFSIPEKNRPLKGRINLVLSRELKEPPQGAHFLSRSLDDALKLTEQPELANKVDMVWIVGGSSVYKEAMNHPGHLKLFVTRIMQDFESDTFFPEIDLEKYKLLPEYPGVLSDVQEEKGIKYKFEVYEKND
# Experimental: The DNA was diluted 1:50 with a promoterless carrier DNA plasmid (PSI) to a final concentration of 80 ng total DNA per well. Twenty-four hours post-transfection, cells were serum starved for additional 24 h and then incubated with 10 μM PBI-4848 or PBI-5015 while control cells were not treated with the conjugated drug. Following equilibration binding of 2 h, the media was removed, and the cells quickly washed with PBS and lysed in detergent-based lysis buffer for 10 min. Cell lysates were then transferred to wells of a 96-well plate containing 0.5 μl settled paramagnetic HALOTAG protein beads and incubated with shaking for 45 min. Following binding, the unbound fraction was removed, the HALOTAG protein paramagnetic beads washed, 150 μM unconjugated methotrexate added, and the captured NANOLUC:DHFR specifically released from the beads by competition with the unconjugated methotrexate for 60 min. The released NANOLUC:DHFR (+PBI5015 or +PBI 4848) and control samples were detected by NANOGLO luciferase detection reagent.
# NANOLUC-DHFR fusion = molecular target: T2, NANOLUC-DHFR fusion (Homo sapiens, UniProt P00374); experiment: Binding affinity to DHFR in live cells using BRET; assay type: cell-based; details: live HEK293 cells, in the presence of 1 μM PBI-4890
# T2 construct: NANOLUC luciferase (reporter fusion partner); expressed in transfected cells; host or cells: HEK293
# T2 sequence (P00374 1-187): T1 sequence (P00374 1-187)
# Experimental: Binding affinity to DHFR in live cells was tested using BRET. HEK293 cells in wells of a 96-well plate were transfected using PEI with plasmid DNA encoding a NANOLUC-DHFR fusion. The DNA was diluted 1:50 with a promoterless carrier DNA plasmid (PSI) to a final concentration of 80 ng total DNA per well. Twenty-four hours post-transfection, cells were serum starved for additional 24 hours and then treated with serially diluted PBI-4848 or PBI-5015 in the presence of 1 μM PBI-4890 (TOM-methotrexate derivative). After two hours of equilibration binding, furimazine (a coelenterazine derivative; Promega Corp.) was added to a final concentration of 20 μM, and BRET measured on a Varioskan luminometer.
# DHFR = molecular target: T3, DHFR (Homo sapiens, UniProt P00374); experiment: Endogenous target pull-down from HEK293 cells (western blot, mass spec); assay type: cell-based; details: 10 uM conjugate, western blot and mass spec
# T3 construct: isolate, e.g., pull-down, endogenous targets from cells; endogenous in cells; host or cells: HEK293
# T3 sequence (P00374 1-187): T1 sequence (P00374 1-187)
# Experimental: HEK293 cells were plated into wells of a 6-well plate (2.5×10^5 cells/well). 48 hours post plating, a final concentration of 10 uM of Methotrexate chloroalkane (PBI-5015) was added to 2 wells while control cells were not treated with the drug conjugate. Following equilibration binding for 2 h, the media was removed, and the cells quickly washed with PBS and lysed in detergent-based lysis buffer for 10 min. Cell lysates were then transferred to an Eppendorf® tube containing 12.5 ul of settled paramagnetic HALOTAG protein beads and incubated with shaking for 15 min. Following binding, the unbound fraction was removed, the HALOTAG paramagnetic beads washed 3×, and the captured targets specifically released from the beads by competition with 150 μM unconjugated methotrexate for 60 mins. The released targets were subjected to mass spec analysis as well as western blot analysis using an anti-DHFR antibody (Sigma). […] Furthermore, although the expression level of DHFR in the cells is very low (not detected in lysate by western blot analysis), it was still efficiently captured as indicated by the western blot analysis (FIG. 8A) and mass spec analysis (FIG. 8B).
# [2] = molecular target: T4, NANOLUC-p38 alpha fusion protein (Homo sapiens, UniProt Q16539); experiment: Pull-down and release of NANOLUC-p38 alpha fusion from HEK293 cell lysates; assay type: binding
# T4 construct: NANOLUC luciferase (reporter fusion partner); expressed in transfected cells; host or cells: HEK293
# T4 sequence (Q16539 whole entry, the tested form may be a part): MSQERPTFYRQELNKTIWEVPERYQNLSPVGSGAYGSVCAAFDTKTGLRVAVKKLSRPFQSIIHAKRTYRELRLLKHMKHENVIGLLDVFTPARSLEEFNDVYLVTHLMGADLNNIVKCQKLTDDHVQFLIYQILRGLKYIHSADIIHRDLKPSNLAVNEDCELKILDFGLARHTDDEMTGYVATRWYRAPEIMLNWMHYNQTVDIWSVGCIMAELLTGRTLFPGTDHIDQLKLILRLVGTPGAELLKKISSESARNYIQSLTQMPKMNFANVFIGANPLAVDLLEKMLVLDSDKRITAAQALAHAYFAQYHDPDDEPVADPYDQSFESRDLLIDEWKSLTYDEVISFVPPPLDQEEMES
# Experimental: In this example, BIRB-chloroalkane conjugate (PBI-4834) and BIRB chloroalkane conjugate containing a cleavable linker (PBI-5131) were utilized to pull-down a NANOLUC-p38 alpha fusion protein from HEK293 cell lysates. Lysate of cells expressing NANOLUC-p38 fusion were incubated with 1 μM PBI-4834 or PBI-5131 (final concentration) while control lysates were not treated with the conjugated drugs. Following equilibration binding for 2 h, the lysates were transferred to wells of a 96-well plate containing 0.5 μl settled paramagnetic HALOTAG protein beads and incubated with shaking for 45 min. Following binding the unbound fraction was removed, the HALOTAG protein paramagnetic beads were washed 3×, and the captured NANLUC-p38 alpha fusion specifically released from the beads by one of two methods: • 1. 150 μM unconjugated BIRB796 was used to compete for binding with the conjugated BIRB796 on the NANOLUC-p38 alpha fusion for 60 min. • 2. The NANOLUC-p38 alpha fusion was rapidly released through 10 min chemical cleavage of the chloroalkane linker with 10 mM of sodium hydrosulfite (PBI-5131 is a chloroalkane cleavable linker). The released NANOLUC-p38 alpha (+PBI4834/+PBI5131) and control (-drug) were detected with NANOGLO luciferase detection reagent.
# [3] = molecular target: T5, NANOLUC-p38 fusion protein (Homo sapiens, UniProt Q16539); experiment: Pull-down of NANOLUC-p38 fusion from cell lysates with HALOTAG protein dimer on HALOLINK plates; assay type: binding; details: p38-Nluc expressing cells treated with drug, listed as BIRB-chloroalkane
# T5 construct: NANOLUC luciferase (reporter fusion partner); expressed in transfected cells
# T5 sequence (Q16539 whole entry, the tested form may be a part): as above
# Experimental: Different amounts of a HALOTAG protein dimer (dimer of SEQ ID NO: 1) were added to cell lysates expressing a NANOLUC-p38 fusion protein (e.g., reporter/cellular-target fusion) which have or have not been treated with BIRB-chloroalkane (e.g., bioactive-agent/capture-ligand conjugate) as shown in Table 1. After 15 minute incubation, the samples were placed into wells of white, 96-well polystyrene plates activated with HALOTAG ligand (HALOLINK plates; Promega Corp.) and further incubated for 45 minutes. The wells were then washed PBS+0.05% Tween-20 (PBST). Then, 50 ul PBS followed by 50 ul of NANOGLO luciferase detection reagent was added to the wells, and luminescence measured.
# Table 2 indicates differences in luminescence in samples with and without HALOTAG dimer (e.g., dimer of SEQ ID NO: 1) that indicate specific pull-down of the NANOLUC-p38 fusion protein.
# p38 alpha = molecular target: T6, p38 alpha (Homo sapiens, UniProt Q16539); experiment: Endogenous target pull-down from HEK293 cells (western blot, mass spec); assay type: cell-based; details: 10 uM conjugate, western blot and mass spec
# T6 construct: isolate, e.g., pull-down, endogenous targets from cells; endogenous in cells; host or cells: HEK293
# T6 sequence (Q16539 whole entry): as the sequence (Q16539 whole entry, the tested form may be a part) above
# Experimental: HEK293 cells were plated in a 6 well plate (2.5×10^5 cells). 48 hours post plating, a final concentration of 10 uM of BIRB-chloroalkane (PBI-4834) was added to 2 wells while control cells were not treated with the drug conjugate. Following equilibration binding for 2 h, the media was removed, and the cells were quickly washed with PBS and lysed in detergent-based lysis buffer for 10 min. Cell lysates were then transferred to an EPPENDORF tube containing 12.5 ul of settled paramagnetic HALOTAG protein beads and incubated with shaking for 15 min. Following binding, the unbound fraction was removed, the HALOTAG protein paramagnetic beads washed 3×, and the captured targets specifically released from the beads by competition with 150 μM unconjugated BIRB796 for 60 min. The released targets were subjected to mass spec analysis as well as western blot analysis using an anti-p38 alpha antibody (Abcam).
# [4] = molecular target: T4, NANOLUC-p38 alpha fusion protein; experiment: Pull-down of NANOLUC-p38 alpha fusion from living HEK293 cells onto HALOTAG protein beads; assay type: cell-based
# Experimental: In this example, a BIRB-chloroalkane conjugate (PBI-4834, see below) was utilized to pull down a NANOLUC-p38 alpha fusion protein from living cells.
# HEK293 cells in wells of a 96-well plate were transfected using PEI with plasmid DNA encoding NANOLUC-p38 fusion. Twenty-four hours post-transfection, cells were incubated with a final concentration of 10 μM PBI-4834 while control cells were not treated with the conjugated drug. Following equilibration binding of 2 hours, the media was removed, cells were quickly washed with PBS and lysed in a detergent-based lysis buffer for 10 minutes. The cell lysates were then transferred to wells of a 96-well plate which contained 0.5 μl settled paramagnetic HALOTAG protein beads (Promega Corp.) and incubated with shaking for 15-45 minutes. Following binding, the unbound fraction was removed and the HALOTAG protein paramagnetic beads were washed. 150 uM unconjugated BIRB796 was then added and the captured NANOLUC-p38 alpha fusion was specifically released from the beads by competition with the unconjugated BIRB796 for 60 minutes. The released NANOLUC-p38 alpha fusion protein (+PBI-4834) and control (−PBI4834) was detected using NANOGLO luciferase reagent (Promega Corp.).
smiles,measurement,setting,value
CN(Cc1cnc2nc(N)nc(N)c2n1)c1ccc(C(=O)NC(CCC(=O)NCCCCCNC(=O)OCCOCCOCCOC(=O)NCCOCCOCCCCCCCl)C(=O)O)cc1 (stereo not shown) [PBI-5015],pull-down of Nluc:DHFR fusion,[1],efficiently pulled down
same,affinity to DHFR (dose-response BRET curves),NANOLUC-DHFR fusion,lower affinity
same,pull-down of endogenous DHFR,DHFR,specifically isolated
CN(Cc1cnc2nc(N)nc(N)c2n1)c1ccc(C(=O)NC(CCC(=O)NCCOCCOCCCCCCCl)C(=O)O)cc1 (stereo not shown) [PBI-4848],affinity to DHFR (dose-response BRET curves),NANOLUC-DHFR fusion,higher affinity
CC(C)(C)c1cc(NC(=O)Nc2ccccc2)n(-c2cccc(CNC(=O)CCCCCOc3ccc(/N=N/c4ccc(C(=O)NCCOCCOCCCCCCCl)cc4)c(O)c3)c2)n1 [PBI-5131],specific capture after rapid release using chemical cleavage,[2]; 10 min cleavage with 10 mM sodium hydrosulfite,significant increase in specific capture
CC(C)(C)c1cc(NC(=O)Nc2ccccc2)n(-c2cccc(CNC(=O)CNC(=O)OCCOCCOCCOC(=O)NCCOCCOCCCCCCCl)c2)n1 [PBI-4834],pull-down efficiency of NANOLUC-p38 alpha,"[2]; 1 μM conjugate, HEK293 cell lysate",significantly higher
same,luminescence,[3]; 2 ug/well HALOTAG dimer,236900 and 397958 and 431167
same,luminescence,[3]; 6 ug/well HALOTAG dimer,401205 and 538956 and 596504
same,luminescence,[3]; 8 ug/well HALOTAG dimer,395510 and 526903 and 610628
same,luminescence,[3]; No HALOTAG dimer,278085 and 275690 and 443682
same,pull-down of endogenous p38 alpha,p38 alpha,specifically isolated
same,expressed fusion specifically captured to the beads,"[4]; 10 μM conjugate, HEK293 cells, release with 150 uM BIRB796",1%
same,signal over background of capture on HALOTAG protein beads,[4]; within 15 minutes of capture,high signal over background
